Source: US5869031A, “Depigmenting dermatological and/or cosmetic composition” (priority 1995, dated 1999)

Key:
[1] = UVA and UVB sunscreen activity, spectrophotometric study; assay type: physicochemical; conditions: extract titrated to 5% umbelliferone, Parsol MCX as comparison
[2] = Anti-radical activity on radical propagation (hydroxyl radicals), evaluated on DPHH; conditions: extract containing 5% umbelliferone; vitamin E as comparison
Description: Evaluation of the anti-radical activity
disappearance of the free radicals. Free radical traps act on the superoxide anion O2^- but also on the hydroxyl radicals. Thus, we have sought to evaluate the anti-radical activity on these two steps.
The activity on radical propagation, and thus on the hydroxyl radicals, is evaluated on DPHH, diphenyl-picrylhydrazyl hydrate, which is a stable, colored free radical.

With `CCCCC(CC)COC(=O)C=Cc1ccc(OC)cc1` (centres unmarked) [Parsol MCX] the “specific extension coefficient at 310 nm” value [1] was 810.
For vitamin E, the “IC50 on DPHH (radical propagation, hydroxyl radicals)” value [2] was 6 µg/mL.
